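1) Cells in 96-well plates. 2) Compound, 48 h, 5 concentrations. 3) Linear interpolation between surrounding doses. 4) Unreached endpoint = highest concentration. TGI: concentration producing complete growth inhibition.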

What all share (assay): NCI tumour cell line growth inhibition, 48 h
Assay [1] concerns ACHN renal.
Assay [2] has as its system BT-549 breast.
Assay [3] relates to HOP-92 NSCLC.
For assay [4], the system named is KM12 colon.
In assay [5] the test system is MALME-3M melanoma.
Assay [6] deals with MCF7 breast.
Assay [7] concerns MDA-MB-435.
The subject of assay [8] is MOLT-4 leukemia.
For assay [9], the system named is NCI-H226 lung.
Assay [10] has as its system NCI-H23 lung.
The subject of assay [11] is OVCAR-5 ovarian.
Assay [12] deals with RPMI-8226 leukemia.
The subject of assay [13] is SK-OV-3 ovarian.
For assay [14], the system named is SNB-19 CNS.
In assay [15] the test system is SNB-75 CNS.
The subject of assay [16] is SR leukemia.
Assay [17] has as its system SW-620 colon.
Assay [18] deals with U251 CNS.
Assay [19] concerns UACC-62 melanoma.
Assay [20] deals with RXF 393 renal.

On to `Cc1ccc(-c2nc(C)c(C(=O)Nc3ccc(Cl)cc3)s2)cc1`, for which the TGI was 42 µM in [1]; 78.2 µM in assay [2]; 70.2 µM in assay [3]; > 100 µM in assay [4]; > 100 µM in assay [5]; > 100 µM in [6]. The TGI is > 100 µM in assay [7]; > 100 µM in [8]; 48.5 µM in assay [9]; 83.6 µM in assay [10]; > 100 µM in [11]; > 100 µM in [12]. The TGI was 45.2 µM in [13]; 43.2 µM in assay [14]; 28.3 µM in [15]; > 100 µM in assay [16]; > 100 µM in assay [17]; 48.8 µM in assay [18]. Moreover, in assay [19], the TGI stood at 45.8 µM.
As for `O=c1c2cc(-c3ccccc3)sc2nc2n1N=C(c1ccccc1)CS2`, the TGI in [1] is 32.5 µM; in assay [2] it was 46.7 µM; in [3], 34.6 µM; in assay [4], > 100 µM; in [5], > 100 µM; in assay [6], 96.2 µM. The TGI in [7], in assay [8], in assay [9], in assay [10], in [11] and in assay [12] was > 100 µM in each case. Moreover, the TGI in [13] is 26.3 µM; in assay [15], 89.1 µM; in assay [16] it was > 100 µM; in [17] it was > 100 µM; in assay [18] it was 48.4 µM; in [19], 31.7 µM.
On to `COc1ccc(/C=C2\CCCC(CN(C)C)C2=O)cc1` (stereo not given), for which the TGI in assay [1] turned out to be 5.86 µM; in assay [2], 3.9 µM; in [3], 8.99 µM; in [4] it was 2.75 µM; in assay [5], 6.95 µM; in assay [6], 1.45 µM. Further, the TGI in assay [7] came to 6.96 µM; in [8], 2.56 µM; in [9], 33.5 µM; in assay [10] it was 13.9 µM; in assay [11] it was 23.2 µM; in [12] it was 0.433 µM. The TGI turned out to be 23.4 µM in [13]; 18 µM in [14]; 21.6 µM in assay [15]; 2.42 µM in assay [16]; 2.39 µM in assay [17]; 3.88 µM in [18]. In assay [19], this compound yielded a TGI of 4.13 µM.
Regarding `Cc1ccc2c3c1O[C@H]1c4[nH]c5ccccc5c4C[C@@]4(O)[C@@H](C2)N(C)CC[C@]314`, the TGI in assay [1] was found to be 29.5 µM; in [2], 31.8 µM; in assay [3], 23.2 µM; in assay [4], 33.8 µM; in assay [5], 29.3 µM; in assay [6], 30 µM. Besides, the TGI in assay [7] came out at 28.3 µM; in [8], 36.7 µM; in assay [9], 23.1 µM; in assay [10], 40.4 µM; in [11], 38.2 µM; in [12], 31.6 µM. Besides, the TGI in assay [20] was 22.7 µM; in assay [14], 34.3 µM; in [16], 41.9 µM; in [17] it was 30.1 µM; in assay [18] it was 29.5 µM; in assay [19], 31.1 µM.
With `CCC1=NC(N/N=C/c2ccco2)=N/C1=C\c1ccccc1O`, the TGI in assay [1] was > 100 µM; in assay [2], > 100 µM; in assay [3], > 100 µM; in assay [4], > 100 µM; in assay [5], 98.9 µM; in assay [6], > 100 µM. Also, the TGI in assay [7], in assay [8], in assay [9], in assay [10], in assay [11] and in [12] was > 100 µM each time. The TGI in assay [20], in assay [13], in assay [14], in assay [16], in assay [17] and in assay [18] was > 100 µM each time. In assay [19], the TGI amounted to 53.6 µM.
As to `Cc1ccc(C2=Nc3cc(C)c(Cl)cc3S(=O)(=O)NN2)cc1`, the TGI in assay [1], in assay [2], in [3], in [4], in [5] and in assay [6] was > 100 µM each time. The TGI in assay [7], in assay [8], in assay [9], in assay [10], in assay [12] and in [20] was > 100 µM each time. The TGI in assay [13] is > 100 µM; in assay [14], > 100 µM; in assay [15] it was > 100 µM; in [16], 53 µM; in assay [17] it was > 100 µM; in assay [18] it was > 100 µM. Besides, the TGI in [19] is > 100 µM.
As for `O=S(=O)(O)c1c(Cl)cc(O)c2ncccc12`, the TGI in [1], in assay [2], in assay [3], in [4], in [6] and in assay [7] was > 100 µM in each case. The TGI in assay [8], in assay [9], in assay [10], in assay [11], in assay [12] and in [20] was > 100 µM in each case. The TGI in assay [14], in assay [15], in assay [16], in assay [17], in assay [18] and in [19] was > 100 µM in each case.

The values are drawn from PubChem BioAssay (NCI).
